# Assay results: patent US8217061B2, “Polymorphs of sorafenib tosylate and sorafenib hemi-tosylate, and processes for preparation thereof” (Sicor Inc., priority 2008, dated 2012)
# Experiments:
# [1] = as reported in WO 2006/034797, page 2, lines 5-7; cited from earlier work
# [2] = stability of crystalline form in water suspension (no hydrolysis of the PTSA moiety); format: physicochemical; conditions: about 20° C., stable = no hydrolysis of the PTSA moiety in water for at least about 48 hours
# Experimental: Sorafenib hemi-tosylate Form A is a stable crystalline form in water suspensions at a temperature of about 20° C., making it ideal for use in the preparation of a dosage form, particularly when the process of wet granulation is used.
stability of crystalline form in water suspensions [2],Molecule,stability of polymorphic form [1]
–,"CNC(=O)c1cc(Oc2ccc(NC(=O)Nc3ccc(Cl)c(C(F)(F)F)c3)cc2)ccn1.Cc1ccc(S(=O)(=O)O)cc1 [form II, 4-(4-{3-[4-chloro-3-(trifluoromethyl)phenyl]ureido}phenoxy)-N2-methylpyridine-2-carboxamide 4-methylbenzenesulfonate]",meta stable
stable,Sorafenib hemi-tosylate [Sorafenib hemi-tosylate Form A],–
